Experiment [1] addresses T1, DDR1 (Homo sapiens, UniProt Q08345). The experiment can be described thus: DDR1 binding assay (LanthaScreen Europium Kinase Binding assay). On the set-up: purchased Carna Biosciences. Conditions: binding assay, 5 nM DDR1, 20 nM Kinase Tracer 178; Ki from IC50 by Cheng-Prusoff; read-out: Ki DDR1. Summed up: (§1)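 Compounds incubated 1 h at room temperature with 5 nM kinase, Kinase Tracer 178 (20 nM for DDR1, 10 nM for DDR2) and 2 nM Eu-anti-GST antibody in pH 7.5 HEPES/MgCl2/EGTA/BRIJ35 buffer. TR-FRET 665/615 nm ratio read after 340 nm excitation; IC50 from 4-parameter fit, converted to Ki by Cheng-Prusoff.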
A general note: Time-resolved FRET reads energy transfer from a long-lived donor to a nearby acceptor.

The target in experiment [2] is T2, DDR2 (Homo sapiens, UniProt Q16832).
T2 sequence (Q16832 22-855): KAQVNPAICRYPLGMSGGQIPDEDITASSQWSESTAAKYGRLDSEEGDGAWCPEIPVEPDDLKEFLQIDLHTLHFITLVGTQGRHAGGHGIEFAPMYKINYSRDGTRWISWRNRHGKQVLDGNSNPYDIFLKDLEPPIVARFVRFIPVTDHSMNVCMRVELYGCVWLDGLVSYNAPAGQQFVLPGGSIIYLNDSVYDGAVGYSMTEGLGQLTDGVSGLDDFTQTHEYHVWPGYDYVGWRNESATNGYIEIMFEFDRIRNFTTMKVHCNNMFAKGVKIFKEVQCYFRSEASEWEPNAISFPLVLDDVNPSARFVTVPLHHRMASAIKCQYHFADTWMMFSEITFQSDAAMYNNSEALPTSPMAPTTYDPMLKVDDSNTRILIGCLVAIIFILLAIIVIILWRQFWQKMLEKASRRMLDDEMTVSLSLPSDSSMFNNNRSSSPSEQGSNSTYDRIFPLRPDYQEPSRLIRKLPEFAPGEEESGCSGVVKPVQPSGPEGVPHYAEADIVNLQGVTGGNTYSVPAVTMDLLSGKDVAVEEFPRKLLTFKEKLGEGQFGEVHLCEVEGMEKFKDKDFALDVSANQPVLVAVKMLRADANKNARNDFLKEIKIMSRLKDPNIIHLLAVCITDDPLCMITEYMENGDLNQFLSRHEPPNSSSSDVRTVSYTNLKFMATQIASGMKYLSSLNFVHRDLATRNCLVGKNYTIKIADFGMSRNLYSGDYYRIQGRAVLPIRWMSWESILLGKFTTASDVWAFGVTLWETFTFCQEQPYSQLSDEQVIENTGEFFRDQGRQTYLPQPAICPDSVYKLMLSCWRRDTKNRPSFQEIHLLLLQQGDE
The experiment can be described thus: DDR2 binding assay (LanthaScreen Europium Kinase Binding assay). On the set-up: purchased Life Technologies. The conditions noted are these: binding assay, 5 nM DDR2, 10 nM Kinase Tracer 178; Ki from IC50 by Cheng-Prusoff; read-out: Ki DDR2. In outline:
as §1

The target in experiment [3] is T1, DDR1. The experiment in a line: DDR1 cell based assay (PathHunter U2OS DDR1 assay). Conditions: U2OS-DDR1 cells, bovine Type II Collagen 20 μg/ml. On the set-up: host or cells: U2OS-DDR1 (PathHunter). In outline:
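U2OS-DDR1 PathHunter cells preincubated 30 min with compound, then stimulated overnight at 37 °C with 20 μg/ml bovine type II collagen. Luminescent complementation signal read after 1 h detection at room temperature; normalized to vehicle (0%) and collagen-only (100%) controls, IC50 from variable-slope sigmoidal fit.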

Experiment [4] deals with T2, DDR2. The experiment in a line: DDR2 cell based assay (phospho-ELISA in HEK293T-DDR2 recombinant cells). On the set-up: expressed in transfected cells; host or cells: HEK293T-DDR2 recombinant cells. Conditions: bovine Type II Collagen 50 μg/ml. Here is the method: The inhibition of DDR2 phosphorylation by compounds was evaluated in HEK293T-DDR2 recombinant cells by phospho-ELISA assay. Briefly, HEK293T-DDR2 cells were seeded in poly-D-lysine-coated 24-well plates at a density of 250.000 cells/well and incubated for 1.5 hours at 37° C. and 5% CO2 in DMEM+10% FBS. After that, the medium was changed to serum-free DMEM and cells were incubated for 3 hours. Then. test compounds were added at different concentrations 30 minutes before stimulation with bovine Type II Collagen at 50 μg/ml for further 3 hours. For DDR2 phospho-ELISA assay (DuoSet IC Human Phospho-DDR2; R&D Systems), protein extracts were obtained by adding 60 μl/well of lysis buffer prepared according to the manufacturer's instructions. Protein concentration in the samples was determined by BCA assay and the levels of phospho-DDR2 were determined following R&D Systems indications. Raw data were normalized to maximal inhibition control (0% for normalization) and positive control (100% for normalization; cells treated with […] collagen II) and IC50 parameters were calculated in GraphPad Prism 8.0 software, using sigmoidal dose-response curve fitting with variable slope.
On the technique in general: In an ELISA, binding on a coated surface is turned into a signal by an enzyme label.

Each structure is given as a SMILES string.

T1 sequence (Q08345 19-913): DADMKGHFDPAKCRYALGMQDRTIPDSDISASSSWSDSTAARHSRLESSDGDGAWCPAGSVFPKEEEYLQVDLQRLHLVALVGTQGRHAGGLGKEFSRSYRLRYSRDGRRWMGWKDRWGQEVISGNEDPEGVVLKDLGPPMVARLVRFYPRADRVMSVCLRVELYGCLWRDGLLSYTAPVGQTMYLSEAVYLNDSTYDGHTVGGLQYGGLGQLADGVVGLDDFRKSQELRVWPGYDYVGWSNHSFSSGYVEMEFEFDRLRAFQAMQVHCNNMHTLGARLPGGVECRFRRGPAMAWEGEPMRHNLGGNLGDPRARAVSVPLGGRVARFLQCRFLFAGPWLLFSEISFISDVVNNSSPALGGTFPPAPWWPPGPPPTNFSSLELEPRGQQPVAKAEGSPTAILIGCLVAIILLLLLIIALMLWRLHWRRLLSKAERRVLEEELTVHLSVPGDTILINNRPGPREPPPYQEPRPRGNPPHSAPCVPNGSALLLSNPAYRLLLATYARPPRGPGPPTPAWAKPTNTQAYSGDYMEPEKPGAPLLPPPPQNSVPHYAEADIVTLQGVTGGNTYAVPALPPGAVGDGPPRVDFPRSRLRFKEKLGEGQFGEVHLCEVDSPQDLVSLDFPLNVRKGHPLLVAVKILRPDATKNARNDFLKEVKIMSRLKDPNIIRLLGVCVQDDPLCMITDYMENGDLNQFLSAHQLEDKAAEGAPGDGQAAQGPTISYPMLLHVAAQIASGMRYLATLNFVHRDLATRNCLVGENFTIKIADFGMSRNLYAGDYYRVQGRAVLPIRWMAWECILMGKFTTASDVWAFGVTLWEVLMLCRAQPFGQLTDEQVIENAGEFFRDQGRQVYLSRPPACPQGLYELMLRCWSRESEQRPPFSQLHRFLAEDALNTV

A word on the Ki: it is a measure of affinity in units of concentration, obtained from inhibition or displacement. By IC50 is commonly meant the concentration that gives 50% inhibition. `O=C(Nc1cncc(C(F)(F)F)c1)c1csc2c1CCN(Cc1cnc3ccnn3c1)C2` [Example 152, 6-(pyrazolo[1,5-a]pyrimidin-6-ylmethyl)-N-(5-(trifluoromethyl)pyridin-3-yl)-4,5,6,7-tetrahydrothieno[2,3-c]pyridine-3-carboxamide]: the Ki in experiment [1] and in experiment [2] was less than 25 nM each time. Further, the IC50 in experiment [3] and in experiment [4] was less than 25 nM in each case.
On to `COc1ccc(NC(=O)c2csc3c2CCN(Cc2cnc4[nH]ccc4c2)C3)cc1C(F)(F)F` [Example 71, 6-((1H-pyrrolo[2,3-b]pyridin-5-yl)methyl)-N-(4-methoxy-3-(trifluoromethyl)phenyl)-4,5,6,7-tetrahydrothieno[2,3-c]pyridine-3-carboxamide], for which the Ki in experiment [1] and in experiment [2] was less than 25 nM throughout. Besides, the IC50 in experiment [3] and in experiment [4] was less than 25 nM throughout.
`C[C@@H]1c2scc(C(=O)Nc3cccc(C(F)(F)F)c3)c2CCN1C(=O)c1cnc2ccccn12` [Example 100, (R)-6-(imidazo[1,2-a]pyridine-3-carbonyl)-7-methyl-N-(3-(trifluoromethyl)phenyl)-4,5,6,7-tetrahydrothieno[2,3-c]pyridine-3-carboxamide]: the inhibition constant Ki in experiment [1] and in experiment [2] was less than 25 nM throughout. The IC50 in experiment [3] and in experiment [4] was less than 25 nM each time.
Turning to `CC1c2scc(C(=O)Nc3cccc(C(F)(F)F)c3)c2CCN1Cc1cnc2[nH]ccc2c1` (single isomer, unassigned) [Example 106, 6-((1H-pyrrolo[2,3-b]pyridin-5-yl)methyl)-7-methyl-N-(3-(trifluoromethyl)phenyl)-4,5,6,7-tetrahydrothieno[2,3-c]pyridine-3-carboxamide], the Ki in experiment [1] and in experiment [2] was less than 25 nM throughout. Also, the IC50 is less than 25 nM in experiment [3] and 25 to 50 nM in experiment [4].
`Cc1ccc(-n2nc(C(C)(C)C)cc2NC(=O)c2csc3c2CCN(Cc2cnc4[nH]ncc4c2)C3)cc1` [Example 75, 6-((1H-pyrazolo[3,4-b]pyridin-5-yl)methyl)-N-(3-(tert-butyl)-1-(p-tolyl)-1H-pyrazol-5-yl)-4,5,6,7-tetrahydrothieno[2,3-c]pyridine-3-carboxamide]: the Ki in experiment [1] and in experiment [2] was less than 25 nM in each case. Further, the IC50 in experiment [3] and in experiment [4] was less than 25 nM throughout.
For the molecule `CC(C)(c1cc(NC(=O)c2csc3c2CCN(C(=O)c2cnc4ccccn24)C3)no1)C(F)(F)F` [Example 9, 6-(imidazo[1,2-a]pyridine-3-carbonyl)-N-(5-(1,1,1-trifluoro-2-methylpropan-2-yl)isoxazol-3-yl)-4,5,6,7-tetrahydrothieno[2,3-c]pyridine-3-carboxamide], the Ki in experiment [1] and in experiment [2] was less than 25 nM throughout. The IC50 in experiment [3] and in experiment [4] was less than 25 nM in each case.
In the case of `CC1(C)c2scc(C(=O)Nc3cccc(C(F)(F)F)c3)c2CCN1C(=O)c1cnc2ccccn12` [Example 102, 6-(imidazo[1,2-a]pyridine-3-carbonyl)-7,7-dimethyl-N-(3-(trifluoromethyl)phenyl)-4,5,6,7-tetrahydrothieno[2,3-c]pyridine-3-carboxamide], the Ki in experiment [1] and in experiment [2] was less than 25 nM in each case. The IC50 in experiment [3] is less than 25 nM; in experiment [4], 25 to 50 nM.
For `Cc1n[nH]c2ncc(CN3CCc4c(C(=O)Nc5cncc(C(F)(F)F)c5)csc4C3)cc12` [Example 150, 6-((3-methyl-1H-pyrazolo[3,4-b]pyridin-5-yl)methyl)-N-(5-(trifluoromethyl)pyridin-3-yl)-4,5,6,7-tetrahydrothieno[2,3-c]pyridine-3-carboxamide], the inhibitory constant (Ki) in experiment [1] and in experiment [2] was less than 25 nM each time. The IC50 in experiment [3] and in experiment [4] was less than 25 nM each time.
With `COc1ccc(NC(=O)c2csc3c2CCN(C(=O)c2cnc4ccccn24)C3)cc1C(F)(F)F` [Example 4, 6-(imidazo[1,2-a]pyridine-3-carbonyl)-N-(4-methoxy-3-(trifluoromethyl)phenyl)-4,5,6,7-tetrahydrothieno[2,3-c]pyridine-3-carboxamide], the Ki in experiment [1] and in experiment [2] was less than 25 nM each time. The IC50 in experiment [3] and in experiment [4] was less than 25 nM throughout.
For `CC1c2scc(C(=O)Nc3cccc(C(F)(F)F)c3)c2CCN1Cc1cnc2cnccn12` (centres unmarked) [Example 103, 6-(imidazo[1,2-a]pyrazin-3-ylmethyl)-7-methyl-N-(3-(trifluoromethyl)phenyl)-4,5,6,7-tetrahydrothieno[2,3-c]pyridine-3-carboxamide], the Ki in experiment [1] and in experiment [2] was less than 25 nM in each case. The IC50 was less than 25 nM in experiment [3] and 25 to 50 nM in experiment [4].
In the case of `Cc1n[nH]c2ncc(CN3CCc4c(C(=O)Nc5cc(C(C)(C)C)nn5C)csc4C3)cc12` [Example 78, N-(3-(tert-butyl)-1-methyl-1H-pyrazol-5-yl)-6-((3-methyl-1H-pyrazolo[3,4-b]pyridin-5-yl)methyl)-4,5,6,7-tetrahydrothieno[2,3-c]pyridine-3-carboxamide], the Ki in experiment [1] and in experiment [2] was less than 25 nM throughout. Moreover, the IC50 in experiment [3] and in experiment [4] was less than 25 nM each time.
On to `O=C(Nc1ccc(OC2CCOC2)c(C(F)(F)F)c1)c1csc2c1CCN(C(=O)c1cnc3ccccn13)C2` (centres unmarked) [Example 12, 6-(imidazo[1,2-a]pyridine-3-carbonyl)-N-(4-((tetrahydrofuran-3-yl)oxy)-3-(trifluoromethyl)phenyl)-4,5,6,7-tetrahydrothieno[2,3-c]pyridine-3-carboxamide], for which the Ki in experiment [1] and in experiment [2] was less than 25 nM each time. The IC50 in experiment [3] and in experiment [4] was less than 25 nM in each case.
Take `O=C(Nc1cncc(C(F)(F)F)c1)c1csc2c1CCN(Cc1cnc3[nH]ncc3c1)C2` [Example 151, 6-(1H-pyrazolo[3,4-b]pyridin-5-ylmethyl)-N-[5-(trifluoromethyl)-3-pyridyl]-5,7-dihydro-4H-thieno[2,3-c]pyridine-3-carboxamide]: the Ki in experiment [1] and in experiment [2] was less than 25 nM each time. Further, the IC50 in experiment [3] and in experiment [4] was less than 25 nM each time.
With `O=C(Nc1cccc(C(F)(F)F)c1)c1csc2c1CCN(C(=O)c1cnc3cnccn13)C2` [Example 90, 6-(imidazo[1,2-a]pyrazine-3-carbonyl)-N-(3-(trifluoromethyl)phenyl)-4,5,6,7-tetrahydrothieno[2,3-c]pyridine-3-carboxamide], the Ki in experiment [1] and in experiment [2] was less than 25 nM each time. Also, the IC50 in experiment [3] and in experiment [4] was less than 25 nM in each case.

Values taken from patent publication US20240391936A1, “TETRAHYDROTHIENO PYRIDINE DERIVATIVES AS DDRS INHIBITORS” (CHIESI FARMACEUTICI S.P.A., priority 2021, published 2024).
